Experiments:
[1] = biological target: T1, recombinant human ALK5 (TGF-βR1) protein (Homo sapiens, UniProt P36897); assay: Biochemical ALK5 (TGF-βR1) assay to measure pKi (LANCE Ultra ULight kinase assay); settings: apparent pKi from pIC50 by Cheng-Prusoff, read-out: ALK5 pKi (converted)
T1 construct: purchased Life Technologies PR9075A
T1 sequence (P36897 34-503): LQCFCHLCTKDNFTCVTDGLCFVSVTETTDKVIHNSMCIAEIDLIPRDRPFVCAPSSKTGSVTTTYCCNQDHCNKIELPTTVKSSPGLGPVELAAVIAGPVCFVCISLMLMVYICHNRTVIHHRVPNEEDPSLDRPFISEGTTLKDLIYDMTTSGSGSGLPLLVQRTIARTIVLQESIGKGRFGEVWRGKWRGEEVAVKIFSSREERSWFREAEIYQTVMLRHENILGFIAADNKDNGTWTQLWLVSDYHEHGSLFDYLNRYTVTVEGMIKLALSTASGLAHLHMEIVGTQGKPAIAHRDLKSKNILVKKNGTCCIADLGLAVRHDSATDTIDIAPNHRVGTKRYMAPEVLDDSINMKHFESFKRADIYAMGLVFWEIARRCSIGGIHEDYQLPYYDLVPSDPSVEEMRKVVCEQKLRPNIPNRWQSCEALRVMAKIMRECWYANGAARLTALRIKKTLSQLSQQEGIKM
Procedure, shortened: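 Compounds (10 μM to 25 pM) preincubated 60 minutes at room temperature with enzyme, then reaction run 60 minutes at 37° C with ATP added as 125 μM (5× final). Stopped with EDTA plus Eu-anti-phospho-Topoisomerase 2-alpha (Thr1342) antibody, TR-FRET read at 665 nm; pIC50 converted to pKi via Cheng-Prusoff.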

[2] = system: TGF-β-stimulated SMAD3 phosphorylation in BEAS-2B cells; assay: Cellular ALK5 potency assay, inhibition of TGF-β stimulated pSMAD3 formation in BEAS-2B cells; assay type: cell-based; settings: Homo sapiens; inhibition of TGF-β stimulated pSMAD3 formation, BEAS-2B cells; read-out: BEAS2B pIC50 (converted)
Procedure, shortened: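 BEAS-2B human lung epithelial cells, seeded overnight, were pre-treated with compound in HBSS/25 mM HEPES/1% BSA for 1 h at 37 °C, then stimulated with TGF-β (final 10 ng/mL) for 30 min. Lysates were assayed for pSMAD3 by AlphaLISA; pIC50 came from dose-dependent signal change versus TGF-β-stimulated untreated cells.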

Ki [1] [nM]	Compound	IC50 [2] [nM]
0.0398 to 0.316	Cc1cccc(-c2n[nH]c(NCCN3CCOCC3)c2-c2ccc3ncc(-c4ccncc4)cc3n2)n1 [Compound 468, 3-(6-methylpyridin-2-yl)-N-(2-morpholinoethyl)-4-(7-(pyridin-4-yl)-1,5-naphthyridin-2-yl)-1H-pyrazol-5-amine]	200 to 1260
0.0398 to 0.316	Cc1cccc(-c2[nH]cnc2-c2ccc3ncc(-c4ccccn4)cc3c2)n1 [Compound 367, 6-[5-(6-methyl-2-pyridyl)-1H-imidazol-4-yl]-3-(2-pyridyl)quinoline]	25.1 to 158
0.0398 to 0.316	Cc1cccc(-c2[nH]ncc2-c2ccc3ncc(C(=O)OCCC4CCNCC4)cc3c2)n1 [Compound 1255, 2-(4-piperidyl)ethyl 6-[5-(6-methyl-2-pyridyl)-1H-pyrazol-4-yl]quinoline-3-carboxylate]	25.1 to 158
0.0398 to 0.316	Cc1cccc(-c2[nH]cnc2-c2ccc3ncc(NCCN4CC(N)C4)cc3c2)n1 [Compound 476, N-[2-(3-aminoazetidin-1-yl)ethyl]-6-[5-(6-methyl-2-pyridyl)-1H-imidazol-4-yl]quinolin-3-amine]	25.1 to 158
0.0398 to 0.316	Cc1cccc(-c2[nH]cnc2-c2ccc3ncc(C4=C[C@H](C)N[C@H](C)C4)cc3c2)n1 [Compound 451, 3-[(2R,6S)-2,6-dimethyl-1,2,3,6-tetrahydropyridin-4-yl]-6-[5-(6-methyl-2-pyridyl)-1H-imidazol-4-yl]quinoline]	25.1 to 158
0.0398 to 0.316	Cc1cccc(-c2[nH]cnc2-c2ccc3ncc(C(=O)OCC4CNC4)cc3c2)n1 [Compound 700, azetidin-3-ylmethyl 6-[5-(6-methyl-2-pyridyl)-1H-imidazol-4-yl]quinoline-3-carboxylate]	25.1 to 158
< 0.0316	Cc1cccc(-c2n[nH]cc2-c2ccc3ncc(N(C)CC4CNC4)cc3n2)n1 [Compound 357, N-(azetidin-3-ylmethyl)-N-methyl-6-[3-(6-methyl-2-pyridyl)-1H-pyrazol-4-yl]-1,5-naphthyridin-3-amine]	25.1 to 158
0.0398 to 0.316	Cc1cccc(-c2[nH]ncc2-c2ccc3ncc(C(=O)OCCC4CCNC4)cc3c2)n1 (centres unmarked) [Compound 1164, 2-pyrrolidin-3-ylethyl 6-[5-(6-methyl-2-pyridyl)-1H-pyrazol-4-yl]quinoline-3-carboxylate]	25.1 to 158
0.0398 to 0.316	Cc1cccc(-c2[nH]cnc2-c2ccc3ncc(-c4csc(C(=O)OCCNC5CNC5)c4)cc3c2)n1 [Compound 1235, 2-(azetidin-3-ylamino)ethyl 4-[6-[5-(6-methyl-2-pyridyl)-1H-imidazol-4-yl]-3-quinolyl]thiophene-2-carboxylate]	25.1 to 158
0.0398 to 0.316	Cc1cccc(-c2n[nH]cc2-c2ccc3ncc(NC(=O)CCCN4CCN(C(C)C)CC4)cc3n2)n1 [Compound 99, 4-(4-isopropylpiperazin-1-yl)-N-[6-[3-(6-methyl-2-pyridyl)-1H-pyrazol-4-yl]-1,5-naphthyridin-3-yl]butanamide]	25.1 to 158
0.0398 to 0.316	Cc1cccc(-c2[nH]cnc2-c2ccc3ncc(C4=CC[C@@H](NC(=O)[C@H]5CCCN5)CC4)cc3c2)n1 [Compound 777, (2R)-N-[(1S)-4-[6-[5-(6-methyl-2-pyridyl)-1H-imidazol-4-yl]-3-quinolyl]cyclohex-3-en-1-yl]pyrrolidine-2-carboxamide]	25.1 to 158
< 0.0316	Cc1cccc(-c2n[nH]cc2-c2ccc3ncc(N4CCC(C)(O)CC4)cc3n2)n1 [Compound 617, 4-methyl-1-[6-[3-(6-methyl-2-pyridyl)-1H-pyrazol-4-yl]-1,5-naphthyridin-3-yl]piperidin-4-ol]	< 20
0.0398 to 0.316	Cc1cccc(-c2[nH]cnc2-c2ccc3ncc(NCCN4CC5(CNC5)C4)cc3c2)n1 [Compound 709, N-[2-(2,6-diazaspiro[3.3]heptan-2-yl)ethyl]-6-[5-(6-methyl-2-pyridyl)-1H-imidazol-4-yl]quinolin-3-amine]	25.1 to 158
0.0398 to 0.316	Cc1cccc(-c2[nH]cnc2-c2ccc3ncc(C(=O)OCCN4CCNCC4)cc3c2)n1 [Compound 756, 2-(piperazin-1-yl)ethyl 6-(5-(6-methylpyridin-2-yl)-1H-imidazol-4-yl)quinoline-3-carboxylate]	25.1 to 158
0.0398 to 0.316	Cc1cccc(-c2[nH]cnc2-c2ccc3ncc(-c4ccc(C(=O)OCCN5CCNCC5)cn4)cc3c2)n1 [Compound 1025, 2-piperazin-1-ylethyl 6-[6-[5-(6-methyl-2-pyridyl)-1H-imidazol-4-yl]-3-quinolyl]pyridine-3-carboxylate]	25.1 to 158
0.0398 to 0.316	Cc1cccc(-c2n[nH]cc2-c2ccc3ncc(-c4coc(CCN5CCNCC5)n4)cc3n2)n1 [Compound 697, 4-[6-[3-(6-methyl-2-pyridyl)-1H-pyrazol-4-yl]-1,5-naphthyridin-3-yl]-2-(2-piperazin-1-ylethyl)oxazole]	200 to 1260
< 0.0316	Cc1cccc(-c2[nH]cnc2-c2ccc3ncc(-c4csc(C(=O)OC[C@@H]5CCC[C@@H](N)C5)c4)cc3c2)n1 (racemic) [Compound 1215, [rac-(1R,3R)-3-aminocyclohexyl]methyl 4-[6-[5-(6-methyl-2-pyridyl)-1H-imidazol-4-yl]-3-quinolyl]thiophene-2-carboxylate]	25.1 to 158
0.0398 to 0.316	Cc1cccc(-c2nc3ccccn3c2-c2ccc3ncc(N4CCC(N(C)C)C4)cc3n2)n1 (racemic) [Compound 285, rac-(3S)-N,N-dimethyl-1-[6-[2-(6-methyl-2-pyridyl)imidazo[1,2-a]pyridin-3-yl]-1,5-naphthyridin-3-yl]pyrrolidin-3-amine]	25.1 to 158
0.0398 to 0.316	Cc1nc(-c2n[nH]cc2-c2ccc3ncc(-c4nc(C(F)(F)F)n5c4CNCC5)cc3n2)ccc1F [Compound 51, 2-[3-(5-fluoro-6-methyl-2-pyridyl)-1H-pyrazol-4-yl]-7-[3-(trifluoromethyl)-5,6,7,8-tetrahydroimidazo[1,5-a]pyrazin-1-yl]-1,5-naphthyridine]	25.1 to 158
0.0398 to 0.316	COC[C@H]1CN(CCNc2cnc3ccc(-c4nc[nH]c4-c4cccc(C)n4)cc3c2)CCN1 [Compound 37, N-[2-[(3R)-3-(methoxymethyl)piperazin-1-yl]ethyl]-6-[5-(6-methyl-2-pyridyl)-1H-imidazol-4-yl]quinolin-3-amine]	25.1 to 158
3.98 to 31.6	Cc1cccc(-c2[nH]cnc2-c2ccc3ncc(C(=O)O)cc3c2)n1 [Compound 796, 6-[5-(6-methyl-2-pyridyl)-1H-imidazol-4-yl]quinoline-3-carboxylic Acid]	1580 to 10000
0.0398 to 0.316	Cc1cccc(-c2[nH]cnc2-c2ccc3ncc(C(=O)OCCC4CCNCC4)cc3c2)n1 [Compound 1048, 2-(4-piperidyl)ethyl 6-[5-(6-methyl-2-pyridyl)-1H-imidazol-4-yl]quinoline-3-carboxylate]	25.1 to 158
< 0.0316	Cc1cccc(-c2[nH]cnc2-c2ccc3ncc(-c4cccc(N5CCNCC5)c4)cc3c2)n1 [Compound 581, 6-[5-(6-methyl-2-pyridyl)-1H-imidazol-4-yl]-3-(3-piperazin-1-ylphenyl)quinoline]	25.1 to 158
0.398 to 3.16	Cc1cccc(-c2[nH]nnc2-c2ccc3ncc(NCCN4CCN(C(C)C)CC4)cc3n2)n1 [Compound 46, N-[2-(4-isopropylpiperazin-1-yl)ethyl]-6-[5-(6-methyl-2-pyridyl)-1H-triazol-4-yl]-1,5-naphthyridin-3-amine]	200 to 1260
< 0.0316	Cc1cccc(-c2n[nH]cc2-c2ccc3ncc(N4CCOCC4)cc3n2)n1 [Compound 78, 4-[6-[3-(6-methyl-2-pyridyl)-1H-pyrazol-4-yl]-1,5-naphthyridin-3-yl]morpholine]	< 20
0.0398 to 0.316	Cc1cccc(-c2[nH]cnc2-c2ccc3ncc(-c4cncc(CN5C[C@@H](C)N[C@@H](C)C5)c4)cc3c2)n1 [Compound 1106, 3-[5-[[(3S,5R)-3,5-dimethylpiperazin-1-yl]methyl]-3-pyridyl]-6-[5-(6-methyl-2-pyridyl)-1H-imidazol-4-yl]quinoline]	25.1 to 158
0.0398 to 0.316	CNCCN(C)C1CCN(c2cnc3ccc(-c4c[nH]nc4-c4cccc(C)n4)nc3c2)CC1 [Compound 18, N,N′-dimethyl-N′-[1-[6-[3-(6-methyl-2-pyridyl)-1H-pyrazol-4-yl]-1,5-naphthyridin-3-yl]-4-piperidyl]ethane-1,2-diamine]	200 to 1260
0.0398 to 0.316	COc1[nH]nc(-c2cccc(C)n2)c1-c1ccc2ncc(N3CCNCC3)cc2n1 [Compound 33, 2-(5-methoxy-3-(6-methylpyridin-2-yl)-1H-pyrazol-4-yl)-7-(piperazin-1-yl)-1,5-naphthyridine]	25.1 to 158

Reference: patent US11590116B2 (THERAVANCE BIOPHARMA R&D IP, LLC, priority 2019, dated 2023)
